Test results taken from patent US8710246B2, “Substituted thiophene pentamers” (Biochromix Newco AB, priority 2008, dated 2014).
Entries after “also recorded” stand apart in the source; their conditions may differ.

Assays:
[1] = test system: hAPPSL transgenic mice; assay: 30 days treatment, Morris Water Maze (MWM) test; format: in vivo; settings: 10 mg/kg, ip 30 days, treatment days 24 to 27
Method: (§1) Starting at 8 months of age, female hAPPSL mice were treated with vehicle only or p-FTAA in 3 dosages for 30 days. The Test Item (T.I.) p-FTAA was administered in 3 dosages in Vehicle. 48 hAPP Tg mice plus 4 reserves allocated to 4 different treatment groups were treated with either vehicle only (control) or with p-FTAA in dosages of 0.1 mg/kg/day, 1 mg/kg/day, or 10 mg/kg/day. As an additional control, 12 nTg littermates of the hAPPSL mice (plus 1 reserve) were treated with vehicle only. Vehicle and T.I.s were administered twice daily intra peritoneal (i.p.) for 30 days.
The MWM was performed during 4 days at the end of treatment period (treatment days 24 to 27). […]
The escape latency (the time needed to find the hidden platform and therefore to escape from the water), the swimming path (the length to reach the target), the swimming speed and in the probe trial crossings over the former platform position and the abidance in the target quadrant were evaluated. […]
Descriptive statistical analysis was performed on all evaluated parameters. […] Group differences were calculated by a parametric ANOVA followed by a Bonferroni post test or by a non-parametric Kruskal Wallis ANOVA followed by a Dunn's post test if Gaussian distribution was missing. Learning curves were evaluated by a Two-way ANOVA followed by a Bonferroni post test. […]

[2] = test system: Aβ deposits; assay: Long term in vivo effects on amyloid plaques in transgenic mice, cranial window, multiphoton spectroscopy; settings: tail vein injection, 10 mg/kg
Source text: This long lasting binding to the plaques is advantageous for a long term therapeutic effect of the inventive compounds.

[3] = test system: hAPPSL transgenic mice; assay: 14 days treatment, general observations, tolerance to compound (toxicity); format: in vivo; settings: for animals that died premature: ip 14 days
Method: Vehicle: Phosphate Buffered Saline (PBS; 6.7 mM PO4, 155 mM NaCl, pH=7.3-7.5) (BioWhittaker PBS from Lonza).
T:I: p-FTAA, Mw=617 g/mol, diluted in vehicle from stock solution in deionized water (10 mg/ml).
Tg hAPPSL: Transgenic hAPPSL mice over-expressing hAPP(751) under the control of the murine Thy-1 promoter with a C57BL/6xDBA background.
Starting at 4 months of age, female hAPPSL mice were treated with vehicle only or p-FTAA in 3 dosages for 14 days. 40 hAPP Tg mice plus 4 reserves allocated to 4 different treatment groups were treated with either vehicle only (control) or with p-FTAA in dosages of 0.1 mg/kg/day, 1 mg/kg/day, or 10 mg/kg/day. Vehicle and T.I.s were administered twice daily intra peritoneal (ip) for 14 days.
In total 44 animals allocated to 4 treatment groups were included in the study. 4 animals died premature due to unknown reason: 1 animal each of the 1 mg/kg and 10 mg/kg T.I. groups and 2 animals from the control group.

[4] = test system: amyloid plaques; assay: 30 days treatment, plaque load by 6E10 IHC and ThioflavinS staining; format: in vivo, mice; settings: for hippocampal plaque load compared to vehicle: t-test
Method: as §1
Following blood sampling, mice were transcardially perfused with physiological (0.9%) saline. The brains were removed from the skull and the cerebellum was cut off, immediately frozen on dry ice and stored at −80° C. The remaining brain was hemisected and the left hemisphere was weighed, immediately frozen on dry ice and stored at −80° C. until A13 analysis. The right hemisphere was fixed with paraformaldehyde as described in section 4.3.1.
The right hemispheres of all Tg mice were fixed by immersion in freshly prepared 4% paraformaldehyde/PBS (pH 7.4) for one hour at room temperature. Thereafter brains were transferred to a 15% sucrose PBS solution for 24 hours to ensure cryoprotection. On the next day, brains were frozen in isopentane and stored at −80° C. until used for histological analysis.
From 6 animals per Tg group, 15 cryo-sections per layer (altogether 5 layers), each 10 μm thick (Leica CM 3050S) were sagittally cut. Brain levels were chosen according to the morphology atlas “The Mouse Brain” from Paxinos and Franklin (2nd edition). The cutting of the five levels started with a random slice corresponding to FIG. 105 (total appearance of the dentate gyrus), then sampling was continued uniformly and systematically, always retaining 15 slices per level in series and discarding 100 μm in between the levels.
Plaque load was quantified by staining with 6E10 IHC directed against AA1-17 of the human amyloid peptide and ThioflavinS staining against beta-sheet structures in a double incubation. Tissues of all investigated animals were handled uniformly.
Descriptive statistical analysis was performed on all evaluated parameters. Data were represented as mean±standard error of mean (SEM). Outliers were detected by Grubbs' test and were excluded from statistical analyses.
Values of the five single measurements (one from each cut level) per animal were integrated to one value per animal (individual mean). Group means were calculated with these integrated values. After Kolmogorov Smirnov normality distribution tests differences were calculated by a parametric ANOVA followed by a Newman Keuls multiple comparison post-hoc test or by a non-parametric Kruskal Wallis ANOVA followed by a Dunn's Multiple comparison test, if Gaussian distribution was missing.

O=C(O)Cc1cc(-c2ccc(C(=O)O)s2)sc1-c1ccc(-c2sc(-c3ccc(C(=O)O)s3)cc2CC(=O)O)s1 [Compound F]
MWM performance in terms of the swimming path [1]: better performance than any other Tg group | binding to Aβ deposits in living mouse brain one week after injection ([2]; one week after injection): binding of the inventive compounds to AP deposits could still be observed; also recorded: bound to Aβ deposits in living mouse brain one week after injection | crossing of the blood brain barrier after intravenous injection ([2]; transgenic mice with AD-like pathology): readily cross the blood brain barrier | animals that died premature ([3]; 1 mg/kg group): 1 animal | animals that died premature ([3]; 10 mg/kg group): 1 animal | attribution of premature deaths to the compound ([3]; 0.1, 1, 10 mg/kg/day ip twice daily for 14 days, 4 months old female hAPPSL mice): cannot be attributed to p-FTAA | decrease in plaque area ([4]; 1 mg/kg, hippocampus): 40% | hippocampal plaque load compared to vehicle ([4]; 1 mg/kg/day, ThioflavinS, listed as p-FTAA): Statistical significance; also recorded: significantly lower plaque load | hippocampal plaque load compared to vehicle ([4]; 10 mg/kg/day, ThioflavinS, listed as p-FTAA): Statistical significance; also recorded: significantly lower plaque load | plaque load in the cortex ([4]; 0.1, 1, 10 mg/kg/day, ThioflavinS, listed as p-FTAA): without significant changes; also recorded: comparable among groups | reduction of diffuse 6E10 IR surrounding the plaque-cores, dose of strongest effect ([4]; 6E10 IHC): strongest for the 10 mg/kg p-FTAA treatment | effect on beta-sheet cores, dose of strongest effect ([4]; ThioflavinS): strongest effect on beta-sheet cores was observed for the 1 mg/kg p-FTAA treatment | plaque load, overall effect of treatment ([4]; mainly hippocampus, 6E10 IHC and ThioflavinS): reduction of plaque load
